Experiments:
[1] = tested on: Seq78-2 (DNA, aptamer) GGGAGCTCAGAATAAACGCTCAAGCACGCGTCGTCTTCCTGCGCTTCTCCCCGCATCATTCGACATGAGGCCCGGATC; test: AuNP colorimetric assay (A520); settings: Na+ (NaCl 40 mM final, added after binding); room temperature, 30 min; 1 μg/mL α-amanitin, aptamer 0-1600 nM; 35 or 78 nt form not stated
[2] = tested on: Seq78-4 (DNA, aptamer) GGGAGCTCAGAATAAACGCTCAATTTTCGCTGGCTAGTCAGTTTTCTCGTCGTGTGATTTCGACATGAGGCCCGGATC; test: AuNP colorimetric assay (A520); settings: Na+ (NaCl 40 mM final, added after binding); room temperature, 30 min; 1 μg/mL α-amanitin, aptamer 0-1600 nM; 35 or 78 nt form not stated
[3] = tested on: Seq78-7 (DNA, aptamer) GGGAGCTCAGAATAAACGCTCAAGTTCCTCTATTCTAGTTATGCGCTACGTACGCTAGTTCGACATGAGGCCCGGATC; test: AuNP colorimetric assay (A520); settings: Na+ (NaCl 40 mM final, added after binding); room temperature, 30 min; 1 μg/mL α-amanitin, aptamer 0-1600 nM; 35 or 78 nt form not stated
[4] = tested on: Seq78-9 (DNA, aptamer) GGGAGCTCAGAATAAACGCTCAACTTTTCTGGTTACTCTCGTTTGTTTGATGTTACTTTTCGACATGAGGCCCGGATC; test: AuNP colorimetric assay (A520); settings: Na+ (NaCl 40 mM final, added after binding); room temperature, 30 min; 1 μg/mL α-amanitin, aptamer 0-1600 nM; 35 or 78 nt form not stated
[5] = tested on: Seq78-2 (DNA, aptamer) GGGAGCTCAGAATAAACGCTCAAGCACGCGTCGTCTTCCTGCGCTTCTCCCCGCATCATTCGACATGAGGCCCGGATC; test: magnetic-bead strand release, supernatant absorbance (Nanodrop); settings: 25 °C, 60 min; 20 μM α-amanitin; capture strand Capture-am-biotin displaced; Langmuir single-point calculation, not fitted
[6] = tested on: Seq78-4 (DNA, aptamer) GGGAGCTCAGAATAAACGCTCAATTTTCGCTGGCTAGTCAGTTTTCTCGTCGTGTGATTTCGACATGAGGCCCGGATC; test: as above; settings: 25 °C, 60 min; 20 μM α-amanitin; capture strand Capture-am-biotin displaced; Langmuir single-point calculation, not fitted
[7] = tested on: Seq78-7 (DNA, aptamer) GGGAGCTCAGAATAAACGCTCAAGTTCCTCTATTCTAGTTATGCGCTACGTACGCTAGTTCGACATGAGGCCCGGATC; test: as above; settings: 25 °C, 60 min; 20 μM α-amanitin; capture strand Capture-am-biotin displaced; Langmuir single-point calculation, not fitted
[8] = tested on: Seq78-9 (DNA, aptamer) GGGAGCTCAGAATAAACGCTCAACTTTTCTGGTTACTCTCGTTTGTTTGATGTTACTTTTCGACATGAGGCCCGGATC; test: as above; settings: 25 °C, 60 min; 20 μM α-amanitin; capture strand Capture-am-biotin displaced; Langmuir single-point calculation, not fitted

- Kd [1]: 820 ± 5 nM
- Kd [2]: 60 ± 3 nM
- Kd [3]: 216 ± 3 nM
- Kd [4]: 881 ± 6 nM
- Kd [5]: 850 ± 45 nM
- Kd [6]: 57.80 ± 1.001 nM
- Kd [7]: 256 ± 5 nM
- Kd [8]: 910 ± 31 nM
Structure (SMILES): CC[C@H](C)[C@@H]1NC(=O)CNC(=O)[C@@H]2Cc3c([nH]c4cc(O)ccc34)[S@](=O)C[C@H](NC(=O)CNC1=O)C(=O)N[C@@H](CC(N)=O)C(=O)N1C[C@H](O)C[C@H]1C(=O)N[C@@H]([C@@H](C)[C@@H](O)CO)C(=O)N2

Reference: publication PMC13120037 (2026)
